Data on four compounds can be found in EP1029854A1, “Oxazolidinones and their use as antibacterial agents” (BAYER AG, priority 1999, dated 2000).

In brackets after ≈: the same amount, converted by molar mass.

The test system of the experiment is S.aureus 133. Nature of the experiment: MIC (MHK) determination by microdilution method in BH medium. The format is cell-based. As to conditions: for Wirksameres Diastereomer: qualitative comparison with Diastereomer 2 of the same example, test not named in the heading, presumably the MIC test; for MIC: Staphylococcus aureus, S.aureus 133, microdilution in BH-Medium, 37°C, read after ca. 20 hours or 3 to 5 days, lowest concentration with no visible growth, samples Diastereomer 1 /Diastereomer 2 = 100:1, read-out: MHK-Werte. The protocol:
Die MHK-Werte wurden mit Hilfe der Mikrodilutionsmethode in BH-Medium bestimmt. Jede Prüfsubstanz wurde in DMSO gelöst. In der Mikrotiterplatte wurde durch serielle Verdünnung eine Konzentrationsreihe der Prüfsubstanzen angelegt. Zur Inokulation wurden Übernachtkulturen der Erreger verwandt, die zuvor im Nährmedium 1:250 verdünnt wurden. Zu 100 µl der verdünnten, wirkstoffhaltigen Nährlösungen wurden je 100 µl Inokulationslösung gegeben.
Die Mikrotiterplatten wurden bei 37°C bebrütet und nach ca. 20 Stunden oder nach 3 bis 5 Tagen abgelesen. Der MHK-Wert (µg/ml) gibt die niedrigste Wirkstoffkonzentration an, bei der kein Wachstum zu erkennen war.
(In general: Dilution methods test growth across graded concentrations, often in twofold steps.)

As to `C=CC(O)[C@H]1CN(c2ccc3c(c2)OCc2nccn2-3)C(=O)O1` (single isomer, unassigned) [Beispiel 1 Diastereomer 1], the “Wirksameres Diastereomer” value was “Wirksameres Diastereomer”. Regarding `C=CC(O)[C@H]1CN(c2ccc3c(c2)OCc2nccn2-3)C(=O)O1` (single isomer, unassigned) [Beispiel 1], the MIC is 1.5 mg/L (≈ 4.79 µM). In the case of `C#CC(O)[C@H]1CN(c2ccc3c(c2)OCc2nccn2-3)C(=O)O1` (single isomer, unassigned) [Beispiel 2 Diastereomer 1], the “Wirksameres Diastereomer” value was “Wirksameres Diastereomer”. For `C#CC(O)[C@H]1CN(c2ccc3c(c2)OCc2nccn2-3)C(=O)O1` (single isomer, unassigned) [Beispiel 2], the MIC turned out to be 1 mg/L (≈ 3.21 µM).
